Test results: patent publication US11141410B2 (MERCK SHARP & DOHME CORP., priority 2015, dated 2021)
Read-outs that look alike come from different tables or passages of the source.

Legend:
MRSA COL (MB5393) [1] = test: TarO Inhibitor/β-Lactam Synergy Assay (growth, OD600); assay type: cell-based; settings: Staphylococcus aureus, read-out: MITC95 TarO inhibitor alone, Bacteria: SA_MB5393
MRSA COL (MB5393) [2] = test: as above; assay type: cell-based, Staphylococcus aureus; settings: for MITC95 TarO inhibitor + 4 μg/mL IPM; Bacteria: SA_MB5393: in combination with 4 μg/mL imipenem (IPM); for MITC95 TarO inhibitor + 8 μg/mL DCX; Bacteria: SA_MB5393: in combination with 8 μg/mL dicloxacillin (DCX)
Procedure: The TarO inhibitor/β-lactam synergy assay was performed to measure the re-sensitization of methicillin-resistant Staphylococci bacteria (MB5393: MRSA COL) to β-lactam antibiotics by TarO inhibitors. MRSA COL is a hospital-acquired penicillinase-negative clinically isolated strain commonly used in Staphylococcus aureus studies and is fully resistant to the antimicrobial bioactivity of β-lactam antibiotics, including but not limited to imipenem and dicloxacillin. […] MRSA COL is fully refractory to β-lactam antibiotic effect at the current clinical breakpoint concentrations and as such MRSA COL is fully viable at these concentrations.
The β-lactam antibiotic concentration was fixed at the clinical breakpoint (imipenem 4 μg/ml or dicloxacillin 8 μg/ml) and the TarO inhibitors were titrated by 2 fold starting from the highest concentration of 200 μM with final DMSO concentration of 2% in the assay. 5×10^5 colony forming unit of MRSA COL in cation-adjusted Mueller Hinton broth (CAMHB) was then mixed and the assay plate was incubated for 20 hours at 37° C. without shaking. After 20 hours, the optical density at 600 nm (OD600) was read for all wells to determine relative growth of MRSA COL.

[3] = TarO inhibitor alone, >200 μM = 95% growth inhibition not achieved, 20 hours at 37° C.

| SMILES | IC95 (MRSA COL (MB5393) [1]; [3]) [µM] | MITC95 TarO inhibitor + 4 μg/mL IPM; Bacteria: SA_MB5393 (MRSA COL (MB5393) [2]) [µM] | MITC95 TarO inhibitor + 8 μg/mL DCX; Bacteria: SA_MB5393 (MRSA COL (MB5393) [2]) [µM] | IC95 (MRSA COL (MB5393) [1]; 20 h) [µM] | MITC95 concentration of β-lactam antibiotic alone (MRSA COL (MB5393) [2]; β-lactam alone, MRSA COL) [µg/mL] |
| --- | --- | --- | --- | --- | --- |
| C[C@@H]1CN(C(=O)NCc2cncc3ccccc23)C(=O)OC1c1cc(C(F)(F)F)cc(C(F)(F)F)c1 (stereo in doubt) [Example 93, (5R,6S)-6-(3,5-bis(trifluoromethyl)phenyl)-N-(isoquinolin-4-ylmethyl)-5-methyl-2-oxo-1,3-oxazinane-3-carboxamide] | > 200 | 0.13 | 0.50 | – | – |
| C[C@@H]1NN(C(=O)NCc2cncc3ccccc23)C(=O)O[C@@H]1c1cc(F)cc(C(F)(F)F)c1 [Example 95] | > 200 | 5.21 | 4.17 | – | – |
| C[C@H]1[C@@H](c2cc(C(F)(F)F)cc(C(F)(F)F)c2)OC(=O)N1C(=O)NCc1cnc2c(c1)CCC2 [Example 42, (4S,5R)-5-[3,5-bis(trifluoromethyl)phenyl]-N-(6,7-dihydro-5H-cyclopenta[b]pyridin-3-ylmethyl)-4-methyl-2-oxo-1,3-oxazolidine-3-carboxamide] | > 200 | 0.78 | 12.50 | – | – |
| Cc1ccccc1CNC(=O)N1C(=O)O[C@H](c2cc(F)cc(C(F)(F)F)c2)[C@@H]1C [Example 16, (4S,5R)-5-[3-fluoro-5-(trifluoromethyl)phenyl]-4-methyl-N-(2-methylbenzyl)-2-oxo-1,3-oxazolidine-3-carboxamide] | > 200 | 0.38 | 3.52 | – | – |
| COc1cc([C@H]2OC(=O)N(C(=O)NCc3cncc4cccnc34)[C@H]2CO)cc(C(F)(F)F)c1 [Example 51, (4S,5R)-4-(hydroxymethyl)-5-[3-methoxy-5-(trifluoromethyl)phenyl]-N-(1,6-naphthyridin-8-yl-methyl)-2-oxo-1,3-oxazolidine-3-carboxamide] | > 200 | 1.56 | 8.33 | – | – |
| C[C@H]1[C@@H](c2cc(C(F)(F)F)cc(C(F)(F)F)c2)OC(=O)N1C(=O)CCc1cncc2ccccc12 [Example 65, (4S,5R)-5-(3,5-bis(trifluoromethyl)phenyl)-3-(3-(isoquinolin-4-yl)propanoyl)-4-methyloxazolidin-2-one] | > 200 | 0.06 | 0.20 | – | – |
| C[C@H]1[C@@H](c2cc(F)cc(Br)c2)OC(=O)N1C(=O)NCc1cncc2ccccc12 [Example 25, (4S,5R)-5-(3-bromo-5-fluorophenyl)-N-(isoquinolin-4-ylmethyl)-4-methyl-2-oxo-1,3-oxazolidine-3-carboxamide] | > 200 | 0.22 | 1.38 | – | – |
| CCOc1ccccc1CNC(=O)N1C(=O)O[C@H](c2cc(F)cc(C(F)(F)F)c2)[C@@H]1C [Example 13, (4S,5R)-N-(2-ethoxybenzyl)-5-[3-fluoro-5-(trifluoromethyl)phenyl]-4-methyl-2-oxo-1,3-oxazolidine-3-carboxamide] | > 200 | 0.06 | 0.35 | – | – |
| C[C@H]1[C@@H](c2cccc(OC(F)(F)F)c2)OC(=O)N1C(=O)CCc1cccc2ccccc12 [Example 69, (4S,5R)-4-methyl-3-(3-naphthalen-1-ylpropanoyl)-5-[3-(trifluoromethoxy)phenyl]-1,3-oxazolidin-2-one] | > 200 | 0.11 | 0.39 | – | – |
| O=C(NCc1cncc2ccccc12)N1C(=O)O[C@H](c2cc(C(F)(F)F)cc(C(F)(F)F)c2)[C@@H]1CO [Example 50, (4S,5R)-5-(3,5-bis(trifluoromethyl)phenyl)-4-(hydroxymethyl)-N-(isoquinolin-4-ylmethyl)-2-oxooxazolidine-3-carboxamide] | – | 0.22 | 0.64 | > 200 | – |
| C[C@H]1[C@@H](c2cc(C(F)(F)F)cc(C(F)(F)F)c2)OC(=O)N1C(=O)NCc1nccc2ccoc12 [Example 17, (4S,5R)-5-[3,5-bis(trifluoromethyl)phenyl]-N-(furo[2,3-c]pyridin-7-ylmethyl)-4-methyl-2-oxo-1,3-oxazolidine-3-carboxamide] | > 200 | 0.39 | 4.30 | – | – |
| COc1cccc([C@H]2OC(=O)N(C(=O)CCc3cncc4ccccc34)[C@H]2C)c1 [Example 87, (4S,5R)-3-(3-isoquinolin-4-ylpropanoyl)-5-(3-methoxyphenyl)-4-methyl-1,3-oxazolidin-2-one] | > 200 | 2.08 | 50 | – | – |
| C[C@H]1[C@@H](c2cc(F)cc(C(F)(F)F)c2)OC(=O)N1C(=O)N(O)Cc1cccc2ccccc12 [Example 46, (4S,5R)-5-[3-fluoro-5-(trifluoromethyl)phenyl]-N-hydroxy-4-methyl-N-(naphthalen-1-ylmethyl)-2-oxo-1,3-oxazolidine-3-carboxamide] | > 200 | 6.25 | 50 | – | – |
| O=C(CCc1cncc2ccccc12)N1CC(c2cc(C(F)(F)F)cc(C(F)(F)F)c2)OC1=O (stereo not drawn) [Example 76, 5-[3,5-bis(trifluoromethyl)phenyl]-3-(3-isoquinolin-4-ylpropanoyl)-1,3-oxazolidin-2-one] | > 200 | 0.39 | – | – | – |
| C[C@H]1[C@@H](c2cc(F)cc(C(F)(F)F)c2)OC(=O)N1C(=O)NCc1cccc2ncccc12 [Example 37, (4S,5R)-5-[3-fluoro-5-(trifluoromethyl)phenyl]-4-methyl-2-oxo-N-(quinolin-5-ylmethyl)-1,3-oxazolidine-3-carboxamide] | > 200 | 0.98 | 2.73 | – | – |
| C[C@H]1[C@@H](c2cc(C(F)(F)F)cc(C(F)(F)F)c2)OC(=O)N1C(=O)NCc1ncccc1Br [Example 28, (4S,5R)-5-[3,5-bis(trifluoromethyl)phenyl]-N-[(3-bromopyridin-2-yl)methyl]-4-methyl-2-oxo-1,3-oxazolidine-3-carboxamide] | > 200 | 0.70 | 4.69 | – | – |
| C[C@H]1[C@@H](c2cc(C(F)(F)F)cc(C(F)(F)F)c2)OC(=O)N1C(=O)NCc1cccc2nccnc12 [Example 10, (4S,5R)-5-[3,5-bis (trifluoromethyl)phenyl]-4-methyl-2-oxo-N-(quinoxalin-5-ylmethyl)-1,3-oxazolidine-3-carboxamide] | > 200 | 0.06 | 0.37 | – | – |
| C[C@H]1[C@@H](c2cccc(C(F)F)c2)OC(=O)N1C(=O)NCc1cncc2ccccc12 [Example 33, (4S,5R)-5-[3-(difluoromethyl)phenyl]-N-(isoquinolin-4-ylmethyl)-4-methyl-2-oxo-1,3-oxazolidine-3-carboxamide] | > 200 | 1.37 | 9.38 | – | – |
| O=C(NCc1cncc2ccccc12)N1C(=O)O[C@H](c2cc(F)cc(C(F)(F)F)c2)[C@@H]1CO [Example 57, (4S,5R)-5-[3-fluoro-5-(trifluoromethyl)phenyl]-4-(hydroxymethyl)-N-(isoquinolin-4-ylmethyl)-2-oxo-1,3-oxazolidine-3-carboxamide] | > 200 | 0.33 | 1.56 | – | – |
| Cc1nc(C(C)C)sc1CNC(=O)N1C(=O)O[C@H](c2cc(F)cc(C(F)(F)F)c2)[C@@H]1C [Example 20, (4S,5R)-5-[3-fluoro-5-(trifluoromethyl)phenyl]-4-methyl-N-{[4-methyl-2-(1-methylethyl)-1,3-thiazol-5-yl]methyl}-2-oxo-1,3-oxazolidine-3-carboxamide] | > 200 | 0.43 | 3.65 | – | – |
| C[C@H]1[C@@H](c2cc(F)cc(C(F)(F)F)c2)OC(=O)N1C(=O)NCc1ccccc1CN(C)C [Example 36, (4S,5R)-N-{2-[(dimethylamino)methyl]benzyl}-5-[3-fluoro-5-(trifluoromethyl)phenyl]-4-methyl-2-oxo-1,3-oxazolidine-3-carboxamide] | > 200 | 6.25 | 25 | – | – |
| Cc1onc(-c2c(Cl)cccc2Cl)c1C(=O)N[C@@H]1C(=O)N2[C@@H]1SC(C)(C)[C@@H]2C(=O)O [dicloxacillin, reference compound] | – | – | – | – | 128 |
